Target: PD-1/PD-L1 (Homo sapiens, UniProt Q9NZQ7)
Assay: TR-FRET PD-1/PD-L1 binding inhibition at the molecular level (free proteins)
Conditions: Tag1-PD-L1 and Tag2-PD-1 proteins, twelve concentrations from 200 nM, 2 hours at room temperature, read-out: FRET assay (IC50)
Method in brief: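 HTRF read-out at 665/620 nm after 2 h at room temperature. Detection used anti-Tag1 Eu cryptate plus anti-Tag2 XL665 antibodies. Tagged PD-L1 and PD-1 proteins were pre-mixed with compound across twelve […] 1:2 dilutions starting at 200 nM.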

Chain of PD-1/PD-L1 (Q9NZQ7 19-238 limits assumed): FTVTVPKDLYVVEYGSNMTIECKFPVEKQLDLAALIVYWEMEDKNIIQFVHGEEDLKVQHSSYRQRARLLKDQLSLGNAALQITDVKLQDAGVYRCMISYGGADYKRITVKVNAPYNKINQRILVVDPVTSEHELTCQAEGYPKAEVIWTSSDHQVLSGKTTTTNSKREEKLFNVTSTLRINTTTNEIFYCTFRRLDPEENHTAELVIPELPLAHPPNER

Row | SMILES | IC50
1 | COc1nc(-c2cccc(-c3cccc(-c4cc5n(n4)CCCC5N4CCC(O)CC4)c3C)c2C)cnc1CNC[C@@H]1CCC(=O)N1 (stereo partly drawn) [Compound 166, (5S)-5-((((5-(3'-(4-(4-hydroxypiperidin-1-yl)-4,5,6,7-tetrahydropyrazolo[1,5-a]pyridin-2-yl)-2,2'-dimethyl-[1,1'-biphenyl]-3-yl)-3-methoxypyrazin-2-yl)methyl)amino)methyl)pyrrolidin-2-one] | 10 to 100 nM
2 | COc1nc(-c2cccc(-c3cccc(-c4cc5n(n4)CCCC5N4CCC(C(=O)O)CC4)c3C)c2C)cnc1CNC[C@@H]1CCC(=O)N1 (stereo partly drawn) [Compound 167, 1-(2-(3'-(6-methoxy-5-(((((S)-5-oxopyrrolidin-2-yl)methyl)amino)methyl)pyrazin-2-yl)-2,2'-dimethyl-[1,1'-biphenyl]-3-yl)-4,5,6,7-tetrahydropyrazolo[1,5-a]pyridin-4-yl)piperidine-4-carboxylic acid] | 10 to 100 nM
3 | COc1nc(-c2cccc(-c3cccc(-c4cc5n(n4)CCCC5NCCO)c3Cl)c2Cl)cnc1CNC[C@@H]1CCC(=O)N1 (stereo partly drawn) [Compound 168, (5S)-5-((((5-(2,2'-dichloro-3'-(4-((2-hydroxyethyl)amino)-4,5,6,7-tetrahydropyrazolo[1,5-a]pyridin-2-yl)-[1,1'-biphenyl]-3-yl)-3-methoxypyrazin-2-yl)methyl)amino)methyl)pyrrolidin-2-one] | < 10 nM
4 | COc1nc(-c2cccc(-c3cccc(-c4cc5n(n4)CCCC5NCC(=O)O)c3Cl)c2Cl)cnc1CNC[C@@H]1CCC(=O)N1 (stereo partly drawn) [Compound 169, 2-((2-(2,2'-dichloro-3'-(6-methoxy-5-(((((S)-5-oxopyrrolidin-2-yl)methyl)amino)methyl)pyrazin-2-yl)-[1,1'-biphenyl]-3-yl)-4,5,6,7-tetrahydropyrazolo[1,5-a]pyridin-4-yl)amino)acetic acid] | < 10 nM
5 | COc1nc(-c2cccc(-c3cccc(-c4cc5n(n4)CCCC5N4CC[C@@H](O)C4)c3Cl)c2Cl)cnc1CNC[C@@H]1CCC(=O)N1 (stereo partly drawn) [Compound 170, (5S)-5-((((5-(2,2'-dichloro-3'-(4-((R)-3-hydroxypyrrolidin-1-yl)-4,5,6,7-tetrahydropyrazolo[1,5-a]pyridin-2-yl)-[1,1'-biphenyl]-3-yl)-3-methoxypyrazin-2-yl)methyl)amino)methyl)pyrrolidin-2-one] | 10 to 100 nM
6 | Cc1c(Nc2nccc3cc(CN4CC[C@@H](O)C4)cnc23)cccc1-c1cccc(-c2cc3n(n2)CCCC3NCCO)c1C (stereo partly drawn) [Compound 174, (3R)-1-((8-((3'-(4-((2-hydroxyethyl)amino)-4,5,6,7-tetrahydropyrazolo[1,5-a]pyridin-2-yl)-2,2'-dimethyl-[1,1'-biphenyl]-3-yl)amino)-1,7-naphthyridin-3-yl)methyl)pyrrolidin-3-ol] | < 10 nM
7 | CC(=O)NCCNC1CCCn2nc(-c3cccc(-c4cccc(Nc5nccc6cc(CN7CC[C@@H](O)C7)cnc56)c4C)c3C)cc21 (stereo partly drawn) [Compound 175, N-(2-((2-(3'-((3-(((R)-3-hydroxypyrrolidin-1-yl)methyl)-1,7-naphthyridin-8-yl)amino)-2,2'-dimethyl-[1,1'-biphenyl]-3-yl)-4,5,6,7-tetrahydropyrazolo[1,5-a]pyridin-4-yl)amino)ethyl)acetamide] | < 10 nM
8 | Cc1c(Nc2nccc3cc(CN4CC[C@@H](O)C4)cnc23)cccc1-c1cccc(-c2cc3n(n2)CCCC3NC[C@@H]2CCC(=O)N2)c1C (stereo partly drawn) [Compound 176, (5S)-5-(((2-(3'-((3-(((R)-3-hydroxypyrrolidin-1-yl)methyl)-1,7-naphthyridin-8-yl)amino)-2,2'-dimethyl-[1,1'-biphenyl]-3-yl)-4,5,6,7-tetrahydropyrazolo[1,5-a]pyridin-4-yl)amino)methyl)pyrrolidin-2-one] | 10 to 100 nM
9 | Cc1c(Nc2nccc3cc(CN4CC[C@@H](O)C4)cnc23)cccc1-c1cccc(-c2cc3n(n2)CCCC3N2CC[C@@H](O)C2)c1C (stereo partly drawn) [Compound 177, (3R)-1-((8-((3'-(4-((R)-3-hydroxypyrrolidin-1-yl)-4,5,6,7-tetrahydropyrazolo[1,5-a]pyridin-2-yl)-2,2'-dimethyl-[1,1'-biphenyl]-3-yl)amino)-1,7-naphthyridin-3-yl)methyl)pyrrolidin-3-ol] | < 10 nM
10 | Cc1c(Nc2nccc3cc(CN4CC[C@@H](O)C4)cnc23)cccc1-c1cccc(-c2cc3n(n2)CCCC3N2CC[C@@H](C(=O)O)C2)c1C (stereo partly drawn) [Compound 178, (3R)-1-(2-(3'-((3-(((R)-3-hydroxypyrrolidin-1-yl)methyl)-1,7-naphthyridin-8-yl)amino)-2,2'-dimethyl-[1,1'-biphenyl]-3-yl)-4,5,6,7-tetrahydropyrazolo[1,5-a]pyridin-4-yl)pyrrolidine-3-carboxylic acid] | < 10 nM
11 | Cc1c(Nc2nccc3cc(CN4CC[C@@H](O)C4)cnc23)cccc1-c1cccc(-c2cc3n(n2)CCCC3NCC(=O)O)c1C (stereo partly drawn) [Compound 179, 2-((2-(3'-((3-(((R)-3-hydroxypyrrolidin-1-yl)methyl)-1,7-naphthyridin-8-yl)amino)-2,2'-dimethyl-[1,1'-biphenyl]-3-yl)-4,5,6,7-tetrahydropyrazolo[1,5-a]pyridin-4-yl)amino)acetic acid] | < 10 nM
12 | OCCNC1CCCn2nc(-c3cccc(-c4cccc(Nc5nccc6cc(CN7CC[C@@H](O)C7)cnc56)c4Cl)c3Cl)cc21 (stereo partly drawn) [Compound 180, (3R)-1-((8-((2,2'-dichloro-3'-(4-((2-hydroxyethyl)amino)-4,5,6,7-tetrahydropyrazolo[1,5-a]pyridin-2-yl)-[1,1'-biphenyl]-3-yl)amino)-1,7-naphthyridin-3-yl)methyl)pyrrolidin-3-ol] | < 10 nM
13 | CC(=O)NCCNC1CCCn2nc(-c3cccc(-c4cccc(Nc5nccc6cc(CN7CC[C@@H](O)C7)cnc56)c4Cl)c3Cl)cc21 (stereo partly drawn) [Compound 181, N-(2-((2-(2,2'-dichloro-3'-((3-(((R)-3-hydroxypyrrolidin-1-yl)methyl)-1,7-naphthyridin-8-yl)amino)-[1,1'-biphenyl]-3-yl)-4,5,6,7-tetrahydropyrazolo[1,5-a]pyridin-4-yl)amino)ethyl)acetamide] | < 10 nM
14 | O=C1CC[C@@H](CNC2CCCn3nc(-c4cccc(-c5cccc(Nc6nccc7cc(CN8CC[C@@H](O)C8)cnc67)c5Cl)c4Cl)cc32)N1 (stereo partly drawn) [Compound 182, (5S)-5-(((2-(2,2'-dichloro-3'-((3-(((R)-3-hydroxypyrrolidin-1-yl)methyl)-1,7-naphthyridin-8-yl)amino)-[1,1'-biphenyl]-3-yl)-4,5,6,7-tetrahydropyrazolo[1,5-a]pyridin-4-yl)amino)methyl)pyrrolidin-2-one] | 10 to 100 nM
15 | O[C@@H]1CCN(Cc2cnc3c(Nc4cccc(-c5cccc(-c6cc7n(n6)CCCC7N6CC[C@@H](O)C6)c5Cl)c4Cl)nccc3c2)C1 (stereo partly drawn) [Compound 183, (3R)-1-(2-(2,2'-dichloro-3'-((3-(((R)-3-hydroxypyrrolidin-1-yl)methyl)-1,7-naphthyridin-8-yl)amino)-[1,1'-biphenyl]-3-yl)-4,5,6,7-tetrahydropyrazolo[1,5-a]pyridin-4-yl)pyrrolidin-3-ol] | < 10 nM
16 | O=C(O)[C@@H]1CCN(C2CCCn3nc(-c4cccc(-c5cccc(Nc6nccc7cc(CN8CC[C@@H](O)C8)cnc67)c5Cl)c4Cl)cc32)C1 (stereo partly drawn) [Compound 184, (3R)-1-(2-(2,2'-dichloro-3'-((3-(((R)-3-hydroxypyrrolidin-1-yl)methyl)-1,7-naphthyridin-8-yl)amino)-[1,1'-biphenyl]-3-yl)-4,5,6,7-tetrahydropyrazolo[1,5-a]pyridin-4-yl)pyrrolidine-3-carboxylic acid] | < 10 nM
17 | O=C(O)CNC1CCCn2nc(-c3cccc(-c4cccc(Nc5nccc6cc(CN7CC[C@@H](O)C7)cnc56)c4Cl)c3Cl)cc21 (stereo partly drawn) [Compound 185, 2-((2-(2,2'-dichloro-3'-((3-(((R)-3-hydroxypyrrolidin-1-yl)methyl)-1,7-naphthyridin-8-yl)amino)-[1,1'-biphenyl]-3-yl)-4,5,6,7-tetrahydropyrazolo[1,5-a]pyridin-4-yl)amino)acetic acid] | < 10 nM
18 | COc1cc(-c2cccc(-c3cccc(NC(=O)c4cc5n(n4)CCCC5NCC(=O)O)c3Cl)c2Cl)cc(F)c1CNCCO (stereo not drawn) [Compound 186, 2-((2-((2,2'-dichloro-3"-fluoro-4"-(((2-hydroxyethyl)amino)methyl)-5"-methoxy-[1,1':3',1"-terphenyl]-3-yl)carbamoyl)-4,5,6,7-tetrahydropyrazolo[1,5-a]pyridin-4-yl)amino)acetic acid] | < 10 nM
19 | COc1cc(-c2cccc(-c3cccc(NC(=O)c4cc5n(n4)CCCC5NCC(=O)O)c3Cl)c2Cl)cc(F)c1CN1CC[C@@H](O)C1 (stereo partly drawn) [Compound 187, 2-((2-((2,2'-dichloro-3"-fluoro-4"-(((R)-3-hydroxypyrrolidin-1-yl)methyl)-5"-methoxy-[1,1':3',1"-terphenyl]-3-yl)carbamoyl)-4,5,6,7-tetrahydropyrazolo[1,5-a]pyridin-4-yl)amino)acetic acid] | < 10 nM
20 | COc1cc(-c2cccc(-c3cccc(NC(=O)c4cc5n(n4)CCCC5NCC(=O)O)c3Cl)c2Cl)cc(F)c1CNC[C@@H]1CCC(=O)N1 (stereo partly drawn) [Compound 188, 2-((2-((2,2'-dichloro-3"-fluoro-5"-methoxy-4"-(((((S)-5-oxopyrrolidin-2-yl)methyl)amino)methyl)-[1,1':3',1"-terphenyl]-3-yl)carbamoyl)-4,5,6,7-tetrahydropyrazolo[1,5-a]pyridin-4-yl)amino)acetic acid] | < 10 nM
21 | COc1cc(-c2cccc(-c3cccc(NC(=O)c4cc5n(n4)CCCC5NCC(=O)O)c3Cl)c2Cl)cc(F)c1CNCCNC(C)=O (stereo not drawn) [Compound 189, 2-((2-((4"-(((2-acetamidoethyl)amino)methyl)-2,2'-dichloro-3"-fluoro-5"-methoxy-[1,1':3',1"-terphenyl]-3-yl)carbamoyl)-4,5,6,7-tetrahydropyrazolo[1,5-a]pyridin-4-yl)amino)acetic acid] | < 10 nM

From patent EP4755888A1 (ILAb Co., Ltd., priority 2023, dated 2025)
